# Measured values published in patent US20060058383A1 (priority 2004, published 2006).
# Assays:
# [1] = Stability of neutral drug solution on storage
# HL-60 cells [2] = assay: MTT assay, in vitro cytotoxic activity before and after storage of drug solutions; type: cell-based, human; details: pH 7.0, 72 h drug incubation
# HL-60/AR cells [3] = assay: Combination cytotoxicity in multi drug resistant cells, annexin-V/PI assay 24 h; type: cell-based, human; details: multi drug resistant HL-60/AR cells
# [4] = tested on: human leukemia HL-60 cell line; assay: Depletion of cellular ATP pool (PCA extraction, HPLC); type: cell-based; details: 12 h incubation; HL-60
# Description: (§1) Cells were incubated with the indicated concentrations of S-Glycolycin or 3-BrPA for 12 h. Cellular ATP was extracted by 0.4 N PCA, neutralized with KOH, and quantified by HPLC analysis. […] Incubation of cells with 0.03 mM S-Glycolycin completely depleted cellular ATP in both cell lines, while it required a 10-fold greater concentration (0.3 mM) of 3-BrPA to achieve the same degree of ATP depletion.
# HL-60 cells [5] = assay: Induction of apoptosis, annexin-V/PI flow cytometry; type: cell-based, human; details: 30 μM; 24 h
# Description: HL-60 cells were incubated with the indicated concentrations of S-Glycolycin or 3-BrPA for 24 h. Apoptosis was measured by double staining with annexin-V and PI, followed by flow cytometry analysis. […] Incubation of HL-60 cells with 30 μM of S-Glycolycin caused more 90% cells to undergo apoptosis in 24 h, whereas the same concentration of 3-BrPA killed less than 20% of the cells within the same time period.
# [6] = tested on: respiration-deficient subclone HL-60/C6F cells; assay: Depletion of cellular ATP pool (PCA extraction, HPLC); type: cell-based, human; details: 12 h incubation
# Description: as §1
# HL-60/AR cells [7] = assay: MTT cytotoxicity, drug-resistant clone versus parental cells; type: cell-based, human; details: MTT assay
# Description: HL-60 cell line and its drug-resistant clone HL-60/AR were incubated with the indicated concentrations of doxorubicin, vincristine, and 3-BrPA for 72 h. Cytotoxicity was measured by MTT assay. […] Based on the teachings provided herein, studies may be performed to determine the sensitivity of HL-60/AR cells to Glycolycin.
# Ara-C, a drug commonly used in the frontline treatment of leukemia, was used in parallel experiments. Cytotoxicity was measured by MTT assay.
# [8] = tested on: human colon cancer (HCT116) cells; assay: Sensitivity under hypoxic versus normoxic conditions, annexin-V/PI assay; type: cell-based
# Text: (§2) Cancer cells in solid tumors have to adapt to the hypoxia environment due to insufficient blood supply. Under hypoxia conditions, cancer cells use the glycolytic pathway to generate ATP without consuming oxygen. This metabolic adaptation also renders cancer cells relatively resistant to anticancer agents and radiation therapy, partially due to up-regulation of expression of cell survival factors such as HIF-1α. […] However, because under hypoxia condition cancer cells dependent on glycolysis for generation of ATP, it is contemplated that such cancer cells are vulnerable to glycolytic inhibition by Glycolycin. […] Thus, it is envisioned that Glycolycin can be use for effective treatment of many solid tumors, either as a single agent or in combination with other anticancer agents.
# [9] = tested on: respiration-deficient clones HL-c6/ρ^0-C6F and Raji-C6; assay: Cytotoxicity in respiration-deficient clones, annexin-V/PI and colony formation; type: cell-based, human
# Description: Initial studies have been performed to test the sensitivity of respiration-competent leukemia cells (parental HL-60) and lymphoma cells (parental Raji) in comparison with their respiration-deficient clones HL-c6/ρ^0-C6F and Raji-C6. The mitochondria-defect cell lines were established by the present inventors and others (Pelicano et al., 2003). Cells were incubated with the indicated concentrations of 3-BrPA, and cytotoxicity was measured by two different assays: annexin-V/PI staining and colony formation assay.
# [10] = tested on: human lymphoma cells (Raji); assay: Apoptosis, annexin-V/PI flow cytometry; type: cell-based
# Text: Because the mTOR pathway plays an important role in promoting cellular nutrient metabolism and cell growth, and function to enhance cell survival downstream of the P13K/Akt pathway, the present inventors postulated that a simultaneous inhibition of mTOR and glycolysis, which serve as a major metabolic pathway for ATP generation in cancer cells, would severely impact cellular energy metabolism and have a potent cytotoxic effect against malignant cells. To test this possibility, rapamycin was used as an agent to inhibit mTOR, and glycolycin (3-bromo-2-oxopropionate, abbreviated herein as 3-BrOP) to inhibit glycolysis.
# (§3) Cell growth inhibition was determined by direct counting of the cells after they were treated with rapamycin, 3-BrOP, or their combination. A Coulter Z2 Particle Count & Size Analyzer was used to determine cell counts at 24 h, 48 h, and 72 h after drug incubation. Apoptosis was measured by flow cytometric analysis of cells stained with annexin V-FITC and propidium iodide (PI). Cells were treated with the indicated compounds under various incubation conditions as described in the figure legends. The samples were collected, washed with cold PBS, and then suspended in annexin-V binding buffer. The cells were stained with annexin V-FITC for 15 min at room temperature, washed, and then stained with PI. The samples were analyzed using a FACSCalibur flow cytometer equipped with CELLQuestPro software (Becton-Dickinson, San Jose, Calif.).
# [11] = tested on: HL-60 cells with high Bcl-2 expression; assay: MTT growth inhibition of Bcl-2 transfected cells; type: cell-based, human; details: MTT assay
# Description: Cell growth inhibition was measured by MTT assay.
# Increased expression of the anti-apoptotic molecule Bcl-2 has been associated with drug resistance in cancer cells. The over-expression of Bcl-2 in HL-60 cells was […] against the cytotoxic effect of S-Glycolycin. […] Thus, Glycolycin may be used to overcome drug resistance due to Bcl-2 over expression.
# [12] = tested on: human lymphoma cells (Raji); assay: Sensitivity under hypoxic versus normoxic conditions, annexin-V/PI assay 24 h; type: cell-based; details: 0.3 μM
# Description: (Annexin-V/PI assay, 24 h)
# as §2
# Raji cells [13] = assay: Cell growth by direct cell counting (Coulter Z2); type: cell-based, human; details: 100 ng/ml alone; up to 72 h
# Description: A different assay was then used to further confirm the synergy between rapamycin and 3-BrOP. Raji cells were treated with 30 μM 3-BrOP, 100 ng/ml rapamycin, or their combination, and the numbers of cells were directly counted for consecutive 3 days, using a Coulter Z2 Particle Count & Size Analyzer.
# as §3
# Raji cells [14] = assay: Cellular glucose uptake, [3H]-2-deoxyglucose; type: cell-based, human; details: 100 ng/ml for 20 h
# Description: After the samples were washed three times with cold PBS, the radioactivity in the cell pellets was quantified by liquid scintillation counting. […] Intracellular nucleotides were extracted from the cells with 0.4 N of perchloric acid (PCA) for 10 min in ice-bath, neutralization with concentrated KOH to pH 7.0, and analyzed by HPLC analysis as described previously (Xu et al., 2005; Seymour et al., 1996). The intracellular ATP contents were calculated using the ATP standard curve generated under identical HPLC conditions, and normalized by equal cell number. The relative cellular ATP levels were expressed as percent of the control cells.
compound,measurement,setting,value
"O=C(O)C(=O)CBr [3-BrPA, 3-bromo-2-oxopropionic acid, reference compound]",activity of solution after storage,[1]; kept at 4° C. for 3 weeks,substantial loss of activity
same,stability of solution at neutral pH,"[1]; pH 7.0, kept at 4° C.",discoloration
same,% Cell Survival,"HL-60 cells [2]; 5 μM, fresh drug solution",99.8 ± 1.9%
same,% Cell Survival,"HL-60 cells [2]; 10 μM, drug stored for 3 weeks at 4° C.",70.0 ± 9.8%
same,% Cell Survival,"HL-60 cells [2]; 10 μM, fresh drug solution",59.2 ± 4.1%
same,% Cell Survival,"HL-60 cells [2]; 30 μM, drug stored for 3 weeks at 4° C.",87.0 ± 23%
same,% Cell Survival,"HL-60 cells [2]; 30 μM, fresh drug solution",3.0 ± 1.4%
same,% Cell Survival,"HL-60 cells [2]; 100 μM, drug stored for 3 weeks at 4° C.",2.3 ± 0.3%
same,% Cell Survival,"HL-60 cells [2]; 100 μM, fresh drug solution",2.5 ± 0.8%
same,effect of combination with ara-C or doxorubicin on cytotoxic activity,HL-60/AR cells [3],significantly enhance the cytotoxic activity
same,concentration that completely depleted cellular ATP,[4],0.3 mM
same,cells undergoing apoptosis,HL-60 cells [5],less than 20%
same,concentration that completely depleted cellular ATP,[6],0.3 mM
same,sensitivity of HL-60/AR compared to parental HL-60 cells,HL-60/AR cells [7],equally sensitive
same,sensitivity under hypoxic versus normoxic conditions,[8],significantly more sensitive
same,sensitivity of mitochondria-defect cells compared to parental cells,[9],more sensitive
Nc1ccn([C@@H]2O[C@H](CO)[C@@H](O)[C@@H]2O)c(=O)n1 [ara-C],"apoptosis, % of the cells","[10]; concentration range of 0.5-1 μM, 30 h",20-35%
same,sensitivity of Bcl-2 transfected cells compared to transfected control (Neo),[11],reduced sensitivity
same,sensitivity of HL-60/AR compared to parental HL-60 cells,HL-60/AR cells [7],moderately resistant
COc1cccc2c1C(=O)c1c(O)c3c(c(O)c1C2=O)C[C@@](O)(C(=O)CO)C[C@@H]3O[C@H]1C[C@H](N)[C@H](O)[C@H](C)O1 [doxorubicin],sensitivity under hypoxic versus normoxic conditions,[12],slightly reduced
same,sensitivity of Bcl-2 transfected cells compared to transfected control (Neo),[11],reduced sensitivity
same,sensitivity of HL-60/AR compared to parental HL-60 cells,HL-60/AR cells [7],highly resistant
same,sensitivity under hypoxic versus normoxic conditions,[8],reduced
"CO[C@H]1C[C@@H]2CC[C@@H](C)[C@@](O)(O2)C(=O)C(=O)N2CCCC[C@H]2C(=O)O[C@H]([C@H](C)C[C@@H]2CC[C@@H](O)[C@H](OC)C2)CC(=O)[C@H](C)/C=C(\C)[C@@H](O)[C@@H](OC)C(=O)[C@H](C)C[C@H](C)/C=C/C=C/C=C/1C [rapamycin, reference compound]",apoptosis,[10]; 100 ng/ml alone,4.8%
same,decrease in cell numbers,Raji cells [13],~35%
same,decrease in glucose uptake,Raji cells [14],6%
CC[C@]1(O)C[C@H]2CN(CCc3c([nH]c4ccccc34)[C@@](C(=O)OC)(c3cc4c(cc3OC)N(C=O)[C@H]3[C@@](O)(C(=O)OC)[C@H](OC(C)=O)[C@]5(CC)C=CCN6CC[C@]43[C@@H]65)C2)C1 [vincristine],sensitivity of HL-60/AR compared to parental HL-60 cells,HL-60/AR cells [7],highly resistant
